Laboratory results taken from ChEMBL document CHEMBL3627609, “A fragment of the Escherichia coli ClpB heat-shock protein is a micromolar melanocortin 1 receptor agonist” (Bioorg Med Chem Lett, 2015).
Active and inactive are the calls of the source. The calls are words filed in the database; no cut-off is given here.

Legend:
[1] = biological target: Melanocortin receptor 5 (Mus musculus) (UniProt P41149); test: Agonist activity at mouse melanocortin 5 receptor expressed in HEK293 cells at 100 uM by AlphaScreen cAMP assay; assay type: functional, cell-based
Melanocortin receptor 5 (Mus musculus), sequence (P41149 whole entry): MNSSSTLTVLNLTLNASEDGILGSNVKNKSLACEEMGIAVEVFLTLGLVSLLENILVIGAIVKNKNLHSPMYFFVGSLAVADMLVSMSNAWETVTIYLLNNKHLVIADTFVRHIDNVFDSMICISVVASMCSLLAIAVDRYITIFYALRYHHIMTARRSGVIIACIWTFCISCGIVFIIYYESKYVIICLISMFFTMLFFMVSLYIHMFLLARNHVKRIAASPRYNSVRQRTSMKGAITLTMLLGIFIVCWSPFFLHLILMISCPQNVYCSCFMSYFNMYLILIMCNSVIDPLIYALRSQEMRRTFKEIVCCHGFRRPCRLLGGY

[2] = biological target: Melanocortin receptor 3 (Mus musculus) (UniProt P33033); test: Agonist activity at mouse melanocortin 3 receptor expressed in HEK293 cells at 100 uM by AlphaScreen cAMP assay; assay type: functional, cell-based
Melanocortin receptor 3 (Mus musculus), sequence (P33033 whole entry): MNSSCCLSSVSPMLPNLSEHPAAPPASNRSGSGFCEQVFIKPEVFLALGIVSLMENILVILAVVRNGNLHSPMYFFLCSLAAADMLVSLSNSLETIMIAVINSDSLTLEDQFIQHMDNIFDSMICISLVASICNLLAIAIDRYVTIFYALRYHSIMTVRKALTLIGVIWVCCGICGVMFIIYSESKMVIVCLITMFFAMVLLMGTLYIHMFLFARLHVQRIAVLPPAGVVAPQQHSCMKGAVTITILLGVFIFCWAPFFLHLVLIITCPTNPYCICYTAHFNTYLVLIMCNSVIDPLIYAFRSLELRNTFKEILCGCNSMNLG

[3] = biological target: Melanocortin receptor 4 (Mus musculus, UniProt P56450); test: Agonist activity at mouse melanocortin 4 receptor expressed in HEK293 cells by AlphaScreen cAMP assay; assay type: functional, cell-based
Melanocortin receptor 4, sequence (P56450 whole entry): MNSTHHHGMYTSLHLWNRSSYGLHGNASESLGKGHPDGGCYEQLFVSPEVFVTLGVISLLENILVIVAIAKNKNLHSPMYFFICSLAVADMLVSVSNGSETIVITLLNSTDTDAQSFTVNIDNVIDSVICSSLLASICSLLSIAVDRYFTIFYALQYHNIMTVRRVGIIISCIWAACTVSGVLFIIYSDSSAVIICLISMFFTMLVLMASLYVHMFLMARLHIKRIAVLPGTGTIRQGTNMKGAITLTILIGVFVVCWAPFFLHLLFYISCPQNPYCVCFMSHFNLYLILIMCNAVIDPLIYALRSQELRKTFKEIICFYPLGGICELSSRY

[4] = biological target: Melanocyte-stimulating hormone receptor (Mus musculus, UniProt Q01727); test: Agonist activity at mouse melanocortin 1 receptor expressed in HEK293 cells by AlphaScreen cAMP assay; assay type: functional, cell-based
Melanocyte-stimulating hormone receptor, sequence (Q01727 whole entry): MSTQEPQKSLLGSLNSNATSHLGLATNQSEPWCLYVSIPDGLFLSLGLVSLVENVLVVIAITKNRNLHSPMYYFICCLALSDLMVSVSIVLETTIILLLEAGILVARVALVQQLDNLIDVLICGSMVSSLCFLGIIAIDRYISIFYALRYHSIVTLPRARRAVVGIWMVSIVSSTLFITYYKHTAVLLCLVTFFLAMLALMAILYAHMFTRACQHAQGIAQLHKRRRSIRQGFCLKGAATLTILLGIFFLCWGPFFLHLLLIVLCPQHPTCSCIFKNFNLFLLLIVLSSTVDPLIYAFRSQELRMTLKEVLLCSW

[5] = biological target: Melanocortin receptor 3 (Mus musculus) (UniProt P33033); test: Antagonist activity at mouse melanocortin 3 receptor expressed in HEK293 cells using NDP-MSH as agonist by Schild analysis; assay type: cell-based
[6] = biological target: Melanocortin receptor 4 (Mus musculus) (UniProt P56450); test: Antagonist activity at mouse melanocortin 4 receptor expressed in HEK293 cells using NDP-MSH as agonist by Schild analysis; assay type: cell-based
Melanocortin receptor 4 (Mus musculus), sequence (P56450 whole entry): as the sequence (P56450 whole entry) above

Activity [1]: 50% | Activity [2]: 30% | EC50 [3]: > 100 µM | EC50 [4]: 41 µM | inhibition [5]: inactive | inhibition [6]: inactive
Substance: Ac-EIAEVLARWTGIPV-NH2
